Measurements published in patent publication US20110104159A1, “COMPOSITIONS AND METHODS FOR TREATING, CONTROLLING, REDUCING, AMELIORATING, OR PREVENTING ALLERGY” (priority 2006, published 2011).

How the values were obtained:
[1] = test system: rabbit paracentesis model; test: Rabbit paracentesis model of ocular inflammation (overall conclusion); format: in vivo; settings: 0.1%, 0.5% and 1% topical; preliminary conclusion
Source text: Inflammatory processes are multidimensional in origin, and are characterized by complex cellular and molecular events involving numerous components all of which have not been identified. Prostaglandins are among these mediators and play an important role in certain forms of ocular inflammation. Paracentesis of the anterior chamber in the rabbit eye induces inflammatory reaction due to the disruption of the blood-aqueous barrier (“BAB”), which is mediated, at least in part, by prostaglandin E2 [References 1-3 below]. Intraocular or topical administration of PGE2 disrupts the BAB. [Reference 4, below] The treatment schedule adopted in this study was similar to the clinical NSAIDs (Ocufen) treatment schedule used by surgeons for patients before cataract surgery.
Each rabbit was placed in a restraint device and tagged with the alphanumeric code. The formulations were instilled (50 μl) into the conjunctival sac of both eyes 180, 120, 90 and 30 min before the first paracentesis; then 15, 30, 90 min after the first paracentesis. To perform the first paracentesis the animals were anaesthetized by intravenous injection of 5 mg/kg Zoletil® (Virbac; 2.5 mg/kg tiletamine HCl and 2.5 mg/kg zolazepam HCl) and one drop of local anesthetic (Novesina®, Novartis) was administered to the eye. […]

human eosinophils [2] = test: Cytokine-sustained (GM-CSF or IL-5) eosinophil survival; format: cell-based; settings: for IC50: Homo sapiens, Eosinophil, 48 h, 0.1% FBS
[3] = test system: peripheral human blood eosinophils; test: Spontaneous eosinophil apoptosis (annexin V/PI flow cytometry)
Protocol: To assess glucocorticoid-induced apoptosis, cells were double-stained with annexin V-Fluos and propidium iodide (PI). Annexin V-Fluos was used according to the manufacturer's instructions.
The suspension was incubated at room temperature for 10 min and analyzed in the BD FACS Canto II flow cytometry system (Becton, Dickinson and Company, New Jersey, USA). Eosinophils and EoL-1 cells were gated on the basis of their forward and side light scatter, with cell debris excluded from analysis. Apoptotic cells were defined as annexin V^+/PI^− cells. A two-way dot plot was prepared to verify the percentage of apoptotic cells. Annexin V^−/PI^− cells were used as control and annexin V^+/PI^+ cells were considered necrotic.
All data are expressed as mean±S.E.M. for the number of experiments indicated. Statistical comparisons were made by ANOVA and post-hoc Newman-Keuls test with differences of P<0.05 considered significant.

[4] = test system: primary human conjunctival epithelial cells (HConEpiC); test: IL-4 and TNF-α-induced cytokine release in HConEpiC (Luminex); format: cell-based; settings: 24 h
Protocol: Primary human conjunctival epithelial cells (HConEpiC) were seeded in two 24-well plates in EpiLife medium+1% Human Corneal Growth Supplement (HCGS; contains bovine pituitary extract, bovine insulin, hydrocortisone, bovine transferrin and mouse epidermal growth factor) at 2×10^4 cells/well. When the cells were confluent (4-5 days after seeding), they were incubated in EpiLife GF medium without glucocorticoids (EpiLife basic medium supplemented with 50 μg/ml bovine pituitary extract, 5 μg/ml bovine insulin and 5 ng/ml mouse epidermal growth factor) for 18 h. […] Culture medium was collected. Cytokine analysis was performed on the culture medium using 2 separate cytokine/chemokine Luminex kits (Kit 1: G-CSF, GM-CSF, IL-6, IL-8, IP-10, MCP-1, RANTES; Kit 2: eotaxin-3, CTACK). ICAM-1 expression was determined in cell lysates using a Luminex kit.
Median fluorescence intensity (MFI) was used to obtain the concentration of each cytokine and ICAM-1 in pg/ml based on the standard curve of each cytokine assayed by Luminex using the StatLIA software. ICAM-1 expression was expressed as pg/mg protein. All data were expressed as mean±SEM. Statistical analysis was performed using a two-way ANOVA-Contrast test with Factor 1 being drug and Factor 2 being dose (JMP 8 software, SAS Institute, Cary, N.C.). P<0.05 was considered statistically significant. Data were analyzed either directly or after Box-Cox transformations (9, 10).

human eosinophils [5] = test: Ionomycin-induced IL-8 secretion in human eosinophils (ELISA); format: cell-based; settings: Eosinophil, compound 45 min before ionomycin, supernatant after 18 h, read-out: IC50, IL-8 release induced by ionomycin in eosinophils
Protocol: After 18 h stimulation at 37° C. in a 5% CO2 atmosphere, Interleukin-8 (IL-8) was measured in supernatants obtained from […] with a commercial ELISA kit from R&D Systems. The threshold sensitivity was 5 pg/ml and the inter- and intra-assay variations were less than 5%. The supernatants obtained from HMC-1 cells were aliquoted in duplicates for interleukin-6 (IL-6), IL-8, chemokine (C-C motif) ligand 5 (CCL5)/regulated upon activation, normal T-cell expressed and secreted (RANTES) and tumor necrosis factor-α (TNF-α) analysis using a high-throughput multiplex Luminex technology (Luminex 200 System; Luminex, Austin, Tx, USA) and Beadview software version 1.0 (Upstate Cell Signaling Solutions, Temecula, Calif.). Standard curves for known concentrations of recombinant human cytokines were used to convert median fluorescence intensities to cytokine concentrations in pg/ml. Only the linear portions of the standard curves were used to quantify cytokine concentrations, and in instances where the fluorescence reading exceeded the linear range of the standard curve, an appropriate dilution was performed to ensure that the concentration was in the linear portion of the curve.

[6] = target: human glucocorticoid receptor (Homo sapiens, UniProt P04150); settings: Schacke et al. [26]; cited from earlier work
human glucocorticoid receptor, sequence (P04150 whole entry): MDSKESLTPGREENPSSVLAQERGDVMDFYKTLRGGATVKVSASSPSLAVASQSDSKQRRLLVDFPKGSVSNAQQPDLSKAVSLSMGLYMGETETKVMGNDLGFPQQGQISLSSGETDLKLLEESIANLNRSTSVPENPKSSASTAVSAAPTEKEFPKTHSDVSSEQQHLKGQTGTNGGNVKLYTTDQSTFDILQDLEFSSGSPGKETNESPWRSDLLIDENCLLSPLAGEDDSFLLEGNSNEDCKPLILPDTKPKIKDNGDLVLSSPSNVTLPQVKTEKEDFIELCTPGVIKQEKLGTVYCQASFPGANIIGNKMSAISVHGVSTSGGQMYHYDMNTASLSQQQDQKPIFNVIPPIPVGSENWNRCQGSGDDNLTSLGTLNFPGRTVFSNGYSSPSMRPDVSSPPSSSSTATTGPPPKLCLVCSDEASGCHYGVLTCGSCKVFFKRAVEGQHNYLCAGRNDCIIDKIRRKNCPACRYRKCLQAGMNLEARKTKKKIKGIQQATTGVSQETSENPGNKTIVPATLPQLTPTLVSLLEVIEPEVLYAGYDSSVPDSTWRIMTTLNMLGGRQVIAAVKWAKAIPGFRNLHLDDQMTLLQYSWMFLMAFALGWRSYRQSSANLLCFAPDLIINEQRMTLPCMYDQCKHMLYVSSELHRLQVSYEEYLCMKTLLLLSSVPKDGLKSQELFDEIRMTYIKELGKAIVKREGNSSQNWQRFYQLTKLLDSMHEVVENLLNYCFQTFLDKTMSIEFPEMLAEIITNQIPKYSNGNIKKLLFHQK

annexin I = test: Annexin I surface expression in human eosinophils (FACS), transactivation marker; format: cell-based; settings: 10 000 nM
Protocol: FACS was performed to measure cell surface expression of annexin I and CXCR4 as indicators of glucocorticoid-mediated transactivation. Human eosinophils were double-stained with a red dye-conjugated secondary antibody to trace changes in the expression of CXCR4 or I, and a green dye-conjugated annexin V to exclude apoptotic cells from the analysis. The cells were counted and transferred to a 24-well plate (10^6 cells/well) and serum-starved (0.1% FBS) for 24 h.
At the end of the incubation, the cells were harvested and each sample was divided into two tubes to run parallel tests for annexin I and CXCR4 surface expression. After rinsing all samples with a HBSS solution containing 1% BSA, the cells were incubated for 45 min on a shaker with anti-annexin I or anti-CXCR4 antibodies (1:200) on ice; the negative control was incubated with an isotype-specific control antibody.
The cells were then washed twice with HBSS/BSA buffer before exposure to the Alexa Fluor® 568-conjugated secondary antibody. The excess of unbound antibody was washed away, and all samples were incubated for 15 min in the presence of annexin V-Fluos. […] Electronic gates were set on annexin V-negative cells and CXCR4 or annexin I-positive cells. Data from 10,000 cells/sample were analyzed using dedicated software (Becton, Dickinson and Company). The % of CXCR4 or annexin I positive cells was calculated.

## Cc1ccc2c(NC[C@](O)(CC(C)(C)c3cc(F)cc4c3OCC4)C(F)(F)F)cccc2n1 [BOL-303242-X, (R)-1,1,1-Trifluoro-4-(5-fluoro-2,3-dihydrobenzofuran-7-yl)-4-methyl-2-{[(2-methyl-5-quinolyl)amino]methyl}pentan-2-ol]
[1]
  Activity in the rabbit paracentesis model: active in this model
Human eosinophils [2]; GM-CSF 200 pM or IL-5 100 pM, data not shown
  Reversal of cytokine-sustained survival at higher cytokine concentrations: not, in fact, able to reverse cytokine-sustained survival
Human eosinophils [2]; GM-CSF 70 pM, read-out: IC50, inhibition of GM-CSF-induced eosinophil survival
  IC50: 158 nM
Human eosinophils [2]; IL-5 30 pM, read-out: IC50, inhibition of interleukin-5-induced eosinophil survival
  IC50: 399 nM
[3]; 24 h, 0.1% FBS, 100 and 1000 nM, data not shown
  Eosinophil apoptosis after 24 h exposure: lower but significant apoptosis
[3]; 48 h, 5000 nM, mean±SEM, n=12, p>0.05 vs without compound (34±10%)
  Percentage of annexin-V+/PI+ (necrotic) peripheral blood eosinophils: 25±9%
[3]; 48 h, 0.1% FBS, no GM-CSF/IL-5, 1-5000 nM
  Efficacy, enhancement of spontaneous eosinophil apoptosis: 90%
[3]; read-out: EC50, enhancement of spontaneous eosinophil apoptosis, 48 h, 0.1% FBS, no GM-CSF/IL-5, 1-5000 nM
  EC50: 456 nM
[4]; 100 nM
  Eotaxin-3 level induced by IL-4 plus TNF-α: significant elevation of eotaxin-3
[4]; 10, 30, 300 and 1000 nM
  Eotaxin-3 level induced by IL-4 plus TNF-α: no effect
[4]; 10-1000 nM
  IL-8 level induced by IL-4 plus TNF-α: no effect
[4]; 30, 100, 300 and 1000 nM
  IP-10 level induced by IL-4 plus TNF-α: significantly inhibited
[4]; 300 and 1000 nM
  IL-6 level induced by IL-4 plus TNF-α: significantly reduced
[4]; all doses 10-1000 nM
  CTACK level induced by IL-4 plus TNF-α: significant reduction
  G-CSF level induced by IL-4 plus TNF-α: significantly elevated
  GM-CSF level induced by IL-4 plus TNF-α: significant reduction
  MCP-1 level induced by IL-4 plus TNF-α: significant reduction
  RANTES level induced by IL-4 plus TNF-α: significant reduction
Human eosinophils [5]
  IC50: 10.7 nM
[6]
  Binding to the human glucocorticoid receptor: high affinity and selectivity
Annexin I
  Induction of annexin I expression on the eosinophil cell surface: partially effective only at the highest concentration
